Reference: patent US7109193B2, “Tricyclic diazepines tocolytic oxytocin receptor antagonists” (Wyeth, priority 2001, dated 2006)
Where a name gives a salt, the structure may show the parent alone.

Biological target: T1, human vasopressin V2 receptor subtype (Homo sapiens, UniProt P30518)
T1 construct: host or cells: CHO cells (pZeoSV vector)
Assay: Vasopressin binding in Chinese Hamster Ovary cell membranes expressing human vasopressin V2 subtype receptors
Conditions: CHO cell membranes, [3H]arginine vasopressin; for IC50: values in parentheses; for inhibition at 0.1 µM: 100 nM, values without parentheses
Method in brief: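 Radioligand displacement on membranes from CHO cells stably expressing human V2 receptor, 25 to 50 μg protein/well, in 50 mM Tris-HCl pH 7.4 with MgCl2, BSA and protease inhibitors. [^3H]arginine vasopressin (8 nM working solution) incubated 60 min at room temperature; bound label measured by filtration and scintillation counting.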

T1 sequence (P30518 whole entry): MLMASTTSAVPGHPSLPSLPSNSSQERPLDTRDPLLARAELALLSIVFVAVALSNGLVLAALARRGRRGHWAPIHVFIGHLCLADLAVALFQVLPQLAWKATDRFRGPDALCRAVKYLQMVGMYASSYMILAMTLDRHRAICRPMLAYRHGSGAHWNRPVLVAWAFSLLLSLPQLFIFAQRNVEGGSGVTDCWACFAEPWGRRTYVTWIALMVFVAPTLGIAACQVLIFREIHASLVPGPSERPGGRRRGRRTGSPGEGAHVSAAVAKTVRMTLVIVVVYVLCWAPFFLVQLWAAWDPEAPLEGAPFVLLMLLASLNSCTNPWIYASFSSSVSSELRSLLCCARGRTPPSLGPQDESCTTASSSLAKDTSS

IC50 [nM] | inhibition at 0.1 µM [%] | SMILES
1330 |  | COc1cccc(-c2cc(OC)c(C(=O)N3Cc4ccc(C(=O)N(C)CCCN(C)C)n4Cc4ccccc43)cc2Cl)c1 [Example 99, 10-[(6-Chloro-3,3′-dimethoxy[1,1′-biphenyl]-4-yl)carbonyl]-N-[3-(dimethylamino)propyl]-N-methyl-10,11-dihydro-5H-pyrrolo[2,1-c][1,4]benzodiazepine-3-carboxamide]
 | 26 | COc1ccccc1-c1ccc(C(=O)N2Cc3ccc(C(=O)N(C)CCN(C)C)n3Cc3ccccc32)cc1OC [Example 94, 10-[(2,2′-Dimethoxy[1,1′-biphenyl]-4-yl)carbonyl]-N-[2-(dimethylamino)ethyl]-N-methyl-10,11-dihydro-5H-pyrrolo[2,1-c][1,4]benzodiazepine-3-carboxamide]
 | 30 | COc1ccccc1-c1ccc(C(=O)N2Cc3ccc(C(=O)N(C)CCN(C)C)n3Cc3ccccc32)cc1C [Example 88, N-[2-(Dimethylamino)ethyl]-10-[(2′-methoxy-2-methyl[1,1′-biphenyl]-4-yl)carbonyl]-N-methyl-10,11-dihydro-5H-pyrrolo[2,1-c][1,4]benzodiazepine-3-carboxamide]
1320 |  | C=CCN1CCN(C(=O)c2ccc3n2Cc2ccccc2N(C(=O)c2cc(Cl)c(-c4ccccc4C)cc2OC)C3)CC1 [Example 219, (4-Allyl-1-piperazinyl){10-[(6-chloro-3-methoxy-2′-methyl[1,1′-biphenyl]-4-yl)carbonyl]-10,11-dihydro-5H-pyrrolo[2,1-c][1,4]benzodiazepin-3-yl}methanone]
298 |  | COc1ccccc1-c1ccc(C(=O)N2Cc3ccc(C(=O)N4CCN(CCN(C)C)CC4)n3Cc3ccccc32)cc1C [Example 195, {4-[2-(Dimethylamino)ethyl]-1-piperazinyl}{10-[(2′-methoxy-2-methyl[1,1′-biphenyl]-4-yl)carbonyl]-10,11-dihydro-5H-pyrrolo[2,1-c][1,4]benzodiazepin-3-yl}methanone]
2460 |  | Cc1cc(C(=O)N2Cc3ccc(C(=O)N4CCNCC4)n3Cc3ccccc32)ccc1-c1ccccc1C(F)(F)F [Example 7, 10,11-Dihydro-10-[[2-methyl-2′-trifluoromethyl-[1,1′-biphenyl]-4-yl]carbonyl]-3-(1-piperazinylcarbonyl)-5H-pyrrolo[2,1-c][1,4]benzodiazepine hydrochloride salt]
1760 |  | Cc1cc(C(=O)N2Cc3ccc(C(=O)N4CCN(C)CC4)n3Cc3ccccc32)ccc1-c1ccccc1C(F)(F)F [Example 2, (4-Methyl-piperazin-1-yl)-[10-(2-methyl-2′-trifluoromethyl-[1,1′-biphenyl]-4-yl)-carbonyl]-10,11-dihydro-5H-pyrrolo[2,1-c][1,4]benzodiazepin-3-yl-methanone]
1430 |  | COc1cc(C(=O)N2Cc3ccc(C(=O)N(C)CCN(C)C)n3Cc3ccccc32)ccc1-c1ccccc1C(F)(F)F [Example 22, N-Methyl-[N-(2-dimethylamino)ethyl]-10-{[2-methoxy-2′-trifluoromethyl-[1,1′-biphenyl]-4-yl]carbonyl}-10,11-dihydro-5H-pyrrolo[2,1-c][1,4]benzodiazepine-3-carboxamide]
 | 11 | COc1ccccc1-c1ccc(C(=O)N2Cc3ccc(C(=O)N(C)CCCN(C)C)n3Cc3ccccc32)cc1 [Example 103, N-[3-(Dimethylamino)propyl]-10-[(2′-methoxy[1,1′-biphenyl]-4-yl)carbonyl]-N-methyl-10,11-dihydro-5H-pyrrolo[2,1-c][1,4]benzodiazepine-3-carboxamide]
601 |  | COc1ccccc1-c1ccc(C(=O)N2Cc3ccc(C(=O)N4CCN(CCN5CCOCC5)CC4)n3Cc3ccccc32)cc1 [Example 207, {10-[(2′-Methoxy[1,1′-biphenyl]-4-yl)carbonyl]-10,11-dihydro-5H-pyrrolo[2,1-c][1,4]benzodiazepin-3-yl}{4-[2-(4-morpholinyl)ethyl]-1-piperazinyl}methanone]
812 |  | COc1cc(-c2ccccc2C)c(Cl)cc1C(=O)N1Cc2ccc(C(=O)N3CC[C@@H](N(C)C)C3)n2Cc2ccccc21 [Example 273, {10-[(6-Chloro-3-methoxy-2′-methyl[1,1′-biphenyl]-4-yl)carbonyl]-10,11-dihydro-5H-pyrrolo[2,1-c][1,4]benzodiazepin-3-yl}[(3R)-3-(dimethylamino)pyrrolidinyl]methanone]
58.8 |  | O=C(c1ccc(-c2cccc3ccccc23)nc1)N1Cc2cccn2Cc2ccccc21 [Example 28, [6-(Naphthalen-1-yl)-pyridin-3-yl]-[10,11-dihydro-5H-pyrrolo[2,1-c][1,4]benzodiazepin-10-yl]methanone]
1820 |  | C=CCN1CCN(C(=O)c2ccc3n2Cc2ccccc2N(C(=O)c2ccc(-c4ccccc4C)c(C)c2)C3)CC1 [Example 220, (4-Allyl-1-piperazinyl){10-[(2,2′-dimethyl[1,1′-biphenyl]-4-yl)carbonyl]-10,11-dihydro-5H -pyrrolo[2,1-c][1,4]benzodiazepin-3-yl}methanone]
11.3 |  | Cc1ccc(-c2ccc(C(=O)N3Cc4cccn4Cc4ccccc43)cc2)c2ccccc12 [Example 25, [4-(4-Methyl-naphthalen-1-yl)phenyl][10,11-dihydro-5H-pyrrolo[2,1-c][1,4]benzodiazepin-10-yl]methanone]
4120 |  | COc1cccc(-c2ccc(C(=O)N3Cc4ccc(C(=O)N5CCC[C@H]5CN5CCCC5)n4Cc4ccccc43)cc2C)c1 [Example 263, {10-[(3′-Methoxy-2-methyl[1,1′-biphenyl]-4-yl)carbonyl]-10,11-dihydro-5H-pyrrolo[2,1-c][1,4]benzodiazepin-3-yl}[(2S)-2-(1-pyrrolidinylmethyl)pyrrolidinyl]methanone]
2310 |  | Cc1cc(C(=O)N2Cc3ccc(C(=O)N4CCCN(C)CC4)n3Cc3ccccc32)ccc1-c1ccccc1C(F)(F)F [Example 59, (4-Methyl-1,4-diazepan-1-yl)(10-{[2-methyl-2′-(trifluoromethyl)[1,1′-biphenyl]-4-yl]carbonyl}-10,11-dihydro-5H-pyrrolo[2,1-c][1,4]benzodiazepin-3-yl)methanone]
1160 |  | COc1cc(C(=O)N2Cc3ccc(C(=O)N(C)CCCN(C)C)n3Cc3ccccc32)ccc1-c1ccccc1C(F)(F)F [Example 21, N-Methyl-[N-(3-dimethylamino)propyl]-10-{[2-methoxy-2′-trifluoromethyl-[1,1′-biphenyl]-4-yl]carbonyl}-10,11-dihydro-5H-pyrrolo[2,1-c][1,4]benzodiazepin-3-carboxamide]
5680 |  | Cc1cc(C(=O)N2Cc3ccc(C(=O)N4CCC[C@H]4CN4CCCC4)n3Cc3ccccc32)ccc1-c1ccccc1C(F)(F)F [Example 258, (10-{[2-Methyl-2′-(trifluoromethyl)[1,1′-biphenyl]-4-yl]carbonyl}-10,11-dihydro-5H-pyrrolo[2,1-c][1,4]benzodiazepin-3-yl)[(2S)-2-(1-pyrrolidinylmethyl)pyrrolidinyl]methanone]
855 |  | Cc1cc(C(=O)N2Cc3ccc(C(=O)N4CCN(CCN(C)C)CC4)n3Cc3ccccc32)ccc1-c1ccccc1C(F)(F)F [Example 196, {4-[2-(Dimethylamino)ethyl]-1-piperazinyl}(10-{[2-methyl-2′-(trifluoromethyl)[1,1′-biphenyl]-4-yl]carbonyl}-10,11-dihydro-5H-pyrrolo[2,1-c][1,4]benzodiazepin-3-yl)methanone]
409 |  | COc1cc(-c2ccccc2Cl)c(Cl)cc1C(=O)N1Cc2ccc(C(=O)N(C)C3CCN(C)CC3)n2Cc2ccccc21 [Example 43, 10-[(2′-Chloro-6-chloro-3-methoxy-[1,1′-biphenyl]-4-yl)carbonyl]-N-methyl-N-(1-methylpiperidin-4-yl)-10,11-dihydro-5H-pyrrolo[2,1-c][1,4]benzodiazepine-3-carboxamide]
 | 17 | Cc1ccccc1-c1ccc(C(=O)N2Cc3ccc(C(=O)N(C)CCN(C)C)n3Cc3ccccc32)cc1 [Example 91, N-[2-(Dimethylamino)ethyl]-N-methyl-10-[(2′-methyl[1,1′-biphenyl]-4-yl)carbonyl]-10,11-dihydro-5H-pyrrolo[2,1-c][1,4]benzodiazepine-3-carboxamide]
4.7 |  | O=C(c1ccc(-c2cccc3ccccc23)cc1Cl)N1Cc2cccn2Cc2ccccc21 [Example 24, [2-Chloro-4-(naphthalen-1-yl)phenyl][10,11-dihydro-5H-pyrrolo[2,1-c][1,4]benzodiazepin-10-yl]methanone]
149 |  | COc1cc(C(=O)N2Cc3cccn3Cc3ccccc32)ccc1-n1c(C)ccc1C [Example 27, [4-(2,5-Dimethyl-1-H-pyrrol-1-yl)-3-methoxy-phenyl][10,11-dihydro-5H-pyrrolo[2,1-c][1,4]benzodiazepin-10-yl]methanone]
722 |  | COc1cc(-c2ccccc2C)c(Cl)cc1C(=O)N1Cc2ccc(C(=O)N3CCN(C)CC3)n2Cc2ccccc21 [Example 47, {10-[(6-Chloro-3-methoxy-2′-methyl[1,1′-biphenyl]-4-yl)carbonyl]-10,11-dihydro-5H-pyrrolo[2,1-c][1,4]benzodiazepin-3-yl}(4-methyl-1-piperazinyl)methanone]
700 |  | COc1ccccc1-c1ccc(C(=O)N2Cc3ccc(C(=O)N4CCN(C)CC4)n3Cc3ccccc32)cc1 [Example 48, {10-[(2′-Methoxy[1,1′-biphenyl]-4-yl)carbonyl]-10,11-dihydro-5H-pyrrolo[2,1-c][1,4]benzodiazepin-3-yl}(4-methyl-1-piperazinyl)methanone]
 | 20 | Cc1ccccc1-c1ccc(C(=O)N2Cc3ccc(C(=O)N(C)CCCN(C)C)n3Cc3ccccc32)cc1 [Example 104, N-[3-(Dimethylamino)propyl]-N-methyl-10-[(2′-methyl[1,1′-biphenyl]-4-yl)carbonyl]-10,11-dihydro-5H-pyrrolo[2,1-c][1,4]benzodiazepine-3-carboxamide]
